From patent US20220154156A1, “PROTEINS AND METHODS FOR DISRUPTING BACTERIAL COMMUNICATION” (REGENTS OF THE UNIVERSITY OF MINNESOTA, priority 2019, published 2022)
Like-named read-outs stand apart in the source and are kept apart here.

B1: SsoPox 19: SsoPox variant with 19 node 55 mutations, SEQ ID NO:13 (protein)
chain: MKIPLVGKDEIEPREMGFTLIHEHLRVFSEAVRQQWPHLYNEDEEFRNAVNEVKTAMSYGVKTIVDPTVMGLGRDIRFMEKVVKATGINVIAATGIYIYTDLPFYFNNRSIDEIADLFIHDIKEGIQGTNNKAGFVKVAADEPGITKDVEKVIRAAAIAHKETKVPIITHSNAHNNTGLEQQRILMEEGVDPGKILIGHLGDTDNIDYIKKIADKGSFIGLDRYGLDLFLPVDKRNETTLKLIKDGYSDKIMISHDYCCTIDWGTAKPEYKPKLAPRWSITLIFEDTIPFLKRNGVNEEVIATIFKENPKKFFS
modifications: SsoPox19 variant
B2: SsoPox 6: SsoPox variant R2K/S10E/S13P/K14R/V91I/L107N, SEQ ID NO:12 (protein)
chain: MKIPLVGKDEIEPRDIGFTLIHEHLRVFSEAVRQQWPHLYNEDEEFRNAVNEVKRAMQFGVKTIVDPTVMGLGRDIRFMEKVVKATGINLIAGTGIYIYIDLPFYFNNRSIDEIADLFIHDIKEGIQGTLNKAGFVKIAADEPGITKDVEKVIRAAAIANKETKVPIITHSNAHNNTGLEQQRILTEEGVDPGKILIGHLGDTDNIDYIKKIADKGSFIGLDRYGLDLFLPVDKRNETTLRLIKDGYSDKIMISHDYCCTIDWGTAKPEYKPKLAPRWSITLIFEDTIPFLKRNGVNEEVIATIFKENPKKFFS
modifications: SsoPox6 variant

Tests used:
[1] = system: Geobacillus caldoxylosilyticus GcL (SEQ ID NO: 1) variant GcL 4 (C147S/H178D/L183E/M244A); test: Lactonase assay of variant GcL 4; type: biochemical; conditions: for catalytic proficiency compared with the wt enzyme: GcL 4 vs GcL wt
Experimental: (§1) Kinetic measurements. The determination of GcL catalytic efficiency was performed by using a microplate reader (Synergy HTX, BioTek, USA) and the software Gen5.1 over a range of substrates (FIG. 2). The reactions were operate in a 96-well plate at a path length of 5.8 mm for a 200 μl reaction volume at room temperature. The catalytic parameters were achieved by fitting the data to Michaelis-Menten equation with the Graph-Pad Prism 5 software. When, Vmax was not reached, the catalytic efficiency was determined by fitting the linear part of Michaelis-Menten plot to a linear regression using Graph-Pad Prism 5.
(§2) Lactonase assay. The AHL lactonolysis consisting in the opening of the lactone ring generates a proton, and leads to an acidification of the media. This property allowed the characterization of the lactonases by using a pH indicator assay. To perform the experiment 5 μl of enzyme were added to a solution containing 10 μl of substrates at various concentrations and 185 μl of lactonase buffer (2.5 mM Bicine pH 8.3, 150 mM NaCl, 0.2 mM CoCl2, 0.2 mM cresol purple, 0.5% DMSO). This assay was performed at 25° C. and the time course of the lactones hydrolysis was recorded at 577 nm. The characterization of the enzyme was proceeding against a large panel of AHLs: C4-AHL, C6-AHL, C8-AHL, C10-AHL, 3-oxo-C8-AHL and against γ-Butyrolactone, γ-Heptalactone, γ-Nonalactone, γ-Decanolactone, δ-Valerolactone, δ-Octanolactone, δ-Nonalactone, δ-Decalactone, ε-Caprolactone, ε-Decalactone, Whiskey lactone.
We determined the ability of these two variants to hydrolyze a wide range of lactones as substrates, using the assay described in the previous chapter. GcL 4 was assayed against substrates C4 AHIL, C8 AHIL, 3-oxo-C8 AHL, 3-oxo-C12 AHL, γ-Butyrolactone, γ-Nonalactone, γ-Decanolactone, δ-Valerolactone, δ-Octanolactone, δ-Decalactone, ε-Caprolactone, ε-Decalactone and Whiskey Lactone, while GcL […] was assayed against C4 AHL, C8 AHL, 3-oxo-C8 AHL, 3-oxo-C12 AHIL, γ-Butyrolactone, γ-Heptalactone, γ-Nonalactone, γ-Decanolactone, δ-Valerolactone, δ-Nonalactone, δ-Decalactone, ε-Caprolactone, ε-Decalactone and Whiskey Lactone (Table 6).

[2] = system: Geobacillus caldoxylosilyticus GcL (SEQ ID NO: 1) variant GcL 14 (Q41P/S66A/S81A/T91S/R111K/F141/A144T/C147S/V1751/H178D/I182L/L183E/M244A/N245K); test: Lactonase assay of variant GcL 14; type: biochemical; conditions: for catalytic proficiency compared with the wt enzyme: GcL 14 vs GcL wt
[3] = system: Geobacillus caldoxylosilyticus lactonase GcL, wild type, SEQ ID NO: 1; conditions: cited from earlier work
[4] = system: Geobacillus caldoxylosilyticus lactonase GcL, wild type, SEQ ID NO: 1; test: Lactonase assay (pH indicator, cresol purple) of GcL wt; type: biochemical; conditions: 25° C., pH 8.3; Table 4, substrates without asterisk
Experimental: as §1, §2

[5] = system: corrosion tubercles on steel coupons; test: Biocorrosion of coated steel coupons in Duluth-Superior Harbor water, 8 weeks; set-up: concentration or dose not given beside the values; conditions: silica gel coating, two months in DSH water
Experimental: The steel coupons were washed with soap water, lightly brushed for a few seconds with a test tube brush, and then rinsed with Milli-Q water to remove any loose material. Each coupon was designated with a unique number and weighed before being randomly assigned to a specific experimental treatment.
Each compound or enzyme was added to 5 ml of the silica gel matrix to develop different coating treatments. These coatings were applied by dipping coupons into the appropriate gel mixture for 1 minute, and then the coating on the coupon surface was air-dried at room temperature for 2 hours.
Six treatments and three controls were investigated for corrosion rate and changes in bacterial communities (Table 10). Each treatment or control contained three replicate steel coupons. After the triplicate steel coupons were coated with each biochemical, enzyme or bacterial treatment, they were incubated in experimental microcosms constructed from 10-gallon glass aquaria (Aqueon Glass, 50.8 cm×25.4 cm×30.5 cm) (FIG. 24). Each microcosm was equipped with an aquarium pump (Aquarium Systems Mini-Jet 404) to constantly circulate the water (˜2 L hr−1), and covered with a piece of acrylic with one corner cut out to allow gas exchange. The coupons were hold with plastic holders and immersed in water taken from the DSH for 8 weeks and then recovered for analyses.
The coupons in each treatment was photographed by the end of the experiment. Biocorrosion was evaluated by the number and coverage of corrosion tubercles, and also by imaging of coupon surfaces with an environmental scanning electron microscope (ESEM). The coupon images were captured with DSLR camera immediately after being removed from the harbor water, and then tubercle numbers and total area in digital images were measured using the analyze menu within ImageJ software (NIH, Bethesda, Md., USA). Surface roughness measurements were also made after the exposed coupons were cleaned with ASTM G1-90 iron and steel chemical cleaning procedure (2 min in 37% HCl, 50 g/L SnCl2). A Hitachi TM-3030 ESEM was used to view details of the cleaned coupon surface and the 3D-View software was used to generate surface roughness measurements (SRa). Statistics analysis (T-tests) of the tubercle numbers, coverage and surface roughness were performed using Microsoft Excel software.

[6] = Enzymatic characterization of SsoPox 6 and SsoPox 19; type: biochemical; conditions: esters, lactones and phosphotriesters; compared with wt
Excerpt: We determined the ability of these two variants to hydrolyze a wide range of substrates, including esters, lactones and phosphotriesters (FIG. 23).

[7] = Paraoxonase activity of SsoPox variants after incubation at 80° C.; type: physicochemical; conditions: compared with wt enzyme and SsoPox W263I
[8] = Table 4, substrates marked *, Data from^17

Row | Molecule | Km ([1]; GcL 4, Table 6) [µM] | kcat ([1]; GcL 4, Table 6) [s⁻¹] | Km ([2]; GcL 14, Table 6) [µM] | kcat ([2]; GcL 14, Table 6) [s⁻¹] | Km [4] [µM] | kcat [4] [s⁻¹] | further results
1 | CCCC(=O)N[C@H]1CCOC1=O [C4-AHL] | 0.75 ± 0.24 | 18.25 ± 0.85 | 0.92 ± 0.27 | 15.01 ± 0.61 | – | – | Km ([1]; GcL 4): ~1 µM; Km ([2]; GcL 14): ~1 µM; Km [3, 8]: 229 ± 57 µM; kcat [3, 8]: 19.06 ± 1.51 s⁻¹; Km ([3]; wt enzyme, C4 AHL marked * (ref 17) in Table 4): ~230 µM
2 | CCCCC1CCCCC(=O)O1 (centres unmarked) [ε-Decalactone] | 1.41 ± 0.3 | 6.3 ± 0.29 | 7.98 ± 2.47 | 10.41 ± 0.85 | 1.05 ± 0.38 | 1.01 ± 0.04 | catalytic proficiency compared with the wt enzyme [1]: similar; catalytic proficiency compared with the wt enzyme [2]: similar
3 | CCCCC1OC(=O)CC1C (centres unmarked) [Whiskey lactone] | – | 8.4 ± 0.39 | 14 ± 3.74 | 7.98 ± 0.63 | 0.67 ± 0.21 | 9.34 ± 0.39 | catalytic proficiency compared with the wt enzyme [1]: similar; catalytic proficiency compared with the wt enzyme [2]: similar
4 | O=C1CCCO1 [γ-Butyrolactone] | 1.99 ± 0.45 | 8.42 ± 0.42 | 5.9 ± 1.67 | 9.89 ± 0.75 | 21.1 ± 7.6 | 2.49 ± 0.15 | –
5 | CCCCC1CCCC(=O)O1 (centres unmarked) [δ-Nonalactone] | – | – | 9.09 ± 2.2 | 23.61 ± 1.40 | 8.05 ± 2.5 | 2.01 ± 0.14 | –
6 | CCCCCC(=O)N[C@H]1CCOC1=O [C6-AHL] | – | – | – | – | – | – | Km [3, 8]: 7.97 ± 1.89 µM; kcat [3, 8]: 8.95 ± 0.48 s⁻¹
7 | O=C1CCCCCO1 [ε-Caprolactone] | 1.3 ± 0.49 | 12.63 ± 0.95 | 2.49 ± 0.67 | 23.74 ± 1.26 | 10.6 ± 3.2 | 8.79 ± 0.43 | –
8 | CCCCCC(=O)CC(=O)N[C@H]1CCOC1=O [3-oxo-C8-AHL] | 1.09 ± 0.28 | 76.4 ± 3.87 | 0.29 ± 0.08 | 76.00 ± 4.04 | – | – | Km [3, 8]: 2.19 ± 0.37 µM; kcat [3, 8]: 9.48 ± 0.35 s⁻¹
9 | CCCCCCCC(=O)N[C@H]1CCOC1=O [C8-AHL] | 0.81 ± 0.2 | – | 1.32 ± 0.34 | 18.38 ± 0.86 | 3.12 ± 0.75 | 1.29 ± 0.04 | –
10 | CCCC1CCCC(=O)O1 (centres unmarked) [δ-Octanolactone] | 1.92 ± 0.54 | 22.01 ± 1.17 | – | – | 18.3 ± 7 | 12.58 ± 0.85 | –
11 | [Mg+2].[O-][O-] [magnesium peroxide] | – | – | – | – | – | – | reduction of the number (formation) of corrosion tubercles [5]: 36%
12 | CCCCCCCCCC(=O)CC(=O)N[C@H]1CCOC1=O [3-oxo-C12 AHL] | – | – | 0.5 ± 0.12 | 15.88 ± 0.45 | – | – | –
13 | CCCCCCCCCC(=O)NC1CCOC1=O (centres unmarked) [C10-AHL] | – | – | – | – | – | – | Km [3, 8]: 1.45 ± 0.47 µM; kcat [3, 8]: 5.48 ± 0.37 s⁻¹
14 | O=C1CCCCO1 [δ-Valerolactone] | 3.13 ± 0.1 | 11.94 ± 1.03 | 1.12 ± 0.12 | 22.13 ± 0.41 | 5.67 ± 0.94 | 1.27 ± 0.03 | –
15 | CCCCCC1CCC(=O)O1 (centres unmarked) [γ-Nonalactone] | 2.54 ± 0.97 | 18.3 ± 0.90 | 9.09 ± 2.2 | 23.61 ± 1.40 | 11.6 ± 3.1 | 18.14 ± 0.9 | catalytic proficiency compared with the wt enzyme [1]: similar; catalytic proficiency compared with the wt enzyme [2]: similar
16 | CCCCCCC1CCC(=O)O1 (centres unmarked) [γ-Decanolactone] | 1.31 ± 0.28 | 22.24 ± 1.10 | 0.32 ± 0.14 | 13.7 ± 0.73 | 7.14 ± 1.03 | 2.69 ± 0.11 | –
17 | CCCCCC1CCCC(=O)O1 (centres unmarked) [δ-Decalactone] | 5.54 ± 0.13 | 10.28 ± 0.76 | 0.32 ± 0.14 | 13.7 ± 0.73 | 3.13 ± 0.9 | 4.1 ± 0.18 | catalytic proficiency compared with the wt enzyme [1]: similar; catalytic proficiency compared with the wt enzyme [2]: similar
18 | CCCC1CCC(=O)O1 (centres unmarked) [γ-Heptalactone] | – | – | 2.77 ± 0.53 | 20.95 ± 0.93 | 2.01 ± 0.71 | 1.77 ± 0.06 | –
19 | B1 | – | – | – | – | – | – | activity levels [6]: extremely similar to those of the wt enzyme; paraoxon hydrolysis after incubation of different times at 80° C. [7]: withstanding better the incubation at 80 °C than the wt enzyme and SsoPox W263I
20 | B2 | – | – | – | – | – | – | activity levels [6]: extremely similar to those of the wt enzyme; paraoxon hydrolysis after incubation of different times at 80° C. [7]: withstanding better the incubation at 80 °C than the wt enzyme and SsoPox W263I
